In patent publication US12577273B2, “Small molecule modulators of gut bacterial bile acid metabolism” (priority 2019, dated 2026):
Where “and” joins values, the source holds several entries; their conditions need not be identical. Identical values can stand only once. Entries after “also recorded” stand apart in the source; their conditions may differ.

Legend:
L. plantarum = assay: Inhibitor screen in bacteria, L. plantarum culture; type: cell-based, Lactobacillus plantarum WCFS1
B. vulgatus = assay: Inhibitor screen in bacteria, B. vulgatus culture; type: cell-based, Bacteroides vulgatus ATCC 8482; details: FIG. 2c, 100 μM inhibitor, 100 μM bile acid pool, 21 h, replicates 1-3
Procedure: (§1) Bacterial Culturing. All bacterial strains were cultured at 37° C. in Cullen-Haiser Gut (CHG) media (which consists of brain heart infusion media (Bacto™ BHI, BD) supplemented with 1% BBL vitamin K1-hemin solution (BD), 1% trace minerals solution (ATCC), 1% trace vitamins solution (ATCC), 5% fetal bovine serum (Hyclone), 1 g/L cellubiose, 1 g/L maltose, and 1 g/L fructose) or BHI^+ (Bacto™ BHI, BD, supplemented with 5 mg/L hemin, and 2.5 uL/L Vitamin K1). All strains were grown under anaerobic conditions in a anaerobic chamber (Coy Lab Products Airlock) with a gas mix of 5% hydrogen and 20% carbon dioxide nitrogen. Escherichia coli was grown aerobically at 37° C. in LB medium supplemented with ampicillin to select for the pET21b plasmid.
(§2) Inhibitor Screen in Bacteria. Bacterial cultures were diluted to OD600 of 0.1 in 4 mL BHI^+, containing 100 μM taurine conjugated bile acid pool 100 μM inhibitors. […] After 21 h, serial dilutions were plated on BHI^+ agar to determine cell viability (CFU/mL). […] The cultures were spun down in a centrifuge at 2,500 g for 5 mins to obtain better separation. The organic layer was then removed and the aqueous layer was extracted again using 2 mL of ethyl acetate.

[1] = system: BSH activity in conventional mouse feces; assay: Screen of inhibitors in conventional mouse feces; type: biochemical
Procedure: Screen of Inhibitors in Conventional Mouse Feces. […] The tubes were then frozen in dry ice for 5 mins and upon thawing were diluted with an equal volume of methanol. […] The supernatant was removed into a clean eppendorf tube and centrifuged again. […] The concentration of product detected from these assays was reported directly.

B. theta = assay: Inhibitor screen in bacteria, B. theta culture; type: cell-based, Bacteroides thetaiotaomicron VPI-5482; details: FIG. 2c, 100 μM inhibitor, 21 h, replicates 1-3
Procedure: as §1, §2

B. adolescentis = assay: Inhibitor screen in bacteria, B. adolescentis culture; type: cell-based, Bifidobacterium adolescentis L2-32; details: FIG. 2c, 100 μM inhibitor, 100 μM bile acid pool, 21 h, replicates 1-3
B. longum BSH = biological target: T1, B. longum BSH (Bifidobacterium longum, UniProt Q9KK62); assay: Inhibitor screen using rBSH, B. longum BSH (UPLC-MS % deconjugation); type: biochemical, Bifidobacterium longum SBT2928; parameters: His6 (C); made in house; host or cells: Escherichia coli (as for the B. theta enzyme); details: 100 μM inhibitor; 2 h, 5 h and 21 h timepoints
T1 sequence (Q9KK62 1-317): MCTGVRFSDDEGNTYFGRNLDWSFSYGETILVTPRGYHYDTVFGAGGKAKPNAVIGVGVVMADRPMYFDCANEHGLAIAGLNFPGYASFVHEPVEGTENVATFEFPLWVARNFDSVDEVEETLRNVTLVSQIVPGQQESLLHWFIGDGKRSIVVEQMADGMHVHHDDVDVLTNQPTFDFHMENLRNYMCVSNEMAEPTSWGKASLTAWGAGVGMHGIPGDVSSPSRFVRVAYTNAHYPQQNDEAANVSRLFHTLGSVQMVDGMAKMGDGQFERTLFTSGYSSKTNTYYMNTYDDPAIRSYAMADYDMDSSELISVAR
Procedure: B. longum rBSH. Recombinant BSH from B. longum SBT2928 was expressed and purified as above, except 0.25 mM IPTG was used for protein expression and 1 mM TCEP for protein purification.
Inhibitor Screen Using rBSHs.

[2] = system: three Gram negative and three Gram positive strains of human gut bacteria; assay: BSH inhibition in growing cultures of six gut bacterial strains (overall statements); type: cell-based; details: 100 μM inhibitor, 100 μM conjugated bile acid mixture
B. theta BSH = B. theta BSH (Bacteroides thetaiotaomicron, UniProt Q8A600); assay: Inhibitor screen using rBSH, B. theta BSH (UPLC-MS % deconjugation); details: 100 μM inhibitor, 30 min preincubation, monitored over 21 hours
B. fragilis = assay: Inhibitor screen in bacteria, B. fragilis culture; type: cell-based, Bacteroides fragilis ATCC 25285; details: FIG. 2c, 100 μM inhibitor, 100 μM bile acid pool, 21 h, replicates 1-3
Procedure: as §1, §2

B. theta BSH KO strain = assay: Incubation with BSH-deleted B. theta strain; details: 100 μM inhibitor
C. perfingens = type: cell-based, Clostridium perfringens ATCC 13124; details: FIG. 2c, C. perfingens culture; 100 μM inhibitor, 100 μM bile acid pool, 21 h; replicates 1-3
[3] = system: three Gram negative and three Gram positive strains of human gut bacteria; assay: Growth (OD600) and cell viability (CFU/mL) of the six gut bacterial strains; details: 100 μM inhibitor
[4] = substrate: C[C@H](CCC(=O)NCCS(=O)(=O)O)[C@H]1CC[C@H]2[C@@H]3CC[C@@H]4C[C@H](O)CC[C@]4(C)[C@H]3C[C@H](O)[C@]12C; assay: purified protein, by the assay type
[5] = substrate: C[C@H](CCC(=O)NCCS(=O)(=O)O)[C@H]1CC[C@H]2[C@@H]3[C@@H](O)C[C@@H]4C[C@H](O)CC[C@]4(C)[C@H]3CC[C@]12C; assay: purified protein, by the assay type
[6] = substrate: C[C@H](CCC(=O)NCCS(=O)(=O)O)[C@H]1CC[C@H]2[C@@H]3[C@H](O)C[C@@H]4C[C@H](O)CC[C@]4(C)[C@H]3C[C@H](O)[C@]12C; assay: purified protein, by the assay type; details: other: Table 3; substrate of B. longum BSH; mean ± SEM, n = 3; pH 7.5; 37.0 °C
[7] = FIG. 2c, L. plantarum culture, 100 μM inhibitor, 100 μM bile acid pool, 21 h, replicates 1-3
[8] = other: Table 1, substrate of B. longum BSH, PBS pH 7.5, 37° C.
[9] = other: Table 3, substrate of B. longum BSH, mean ± SEM, n = 3, pH 7.5, 37.0 °C

## O=C(/C=C/c1ccc(O)c(O)c1)OCCc1ccccc1 [CAPE, caffeic acid phenethyl ester, reference compound]
L. plantarum; 100 μM CAPE
  inhibition of deconjugation in L. plantarum (in words): inhibit deconjugation in L. plantarum
L. plantarum; [7]
  % deconjugation of TCA: 10.67% and 33.19% and 53.29%
  % deconjugation of TDCA: 47.57% and 82.98% and 93.57%
  % deconjugation of TUDCA: 6.80% and 1.73% and 3.54%
  % deconjugation of TβMCA: 0.06% and 0.59% and 0.95%
B. vulgatus
  % deconjugation of TCA: 1.46% and 1.06% and 0.00%
  % deconjugation of TDCA: 5.47% and 3.03% and 1.28%
  % deconjugation of TUDCA: 82.37% and 94.25% and 87.91%
  % deconjugation of TβMCA: 88.92% and 78.15% and 71.86%
[1]; 20 μM inhibitor, 30 min, then GCDCA-d4 100 μM, 18 hours
  BSH activity in resuspended conventional mouse feces (in words): minimal inhibitory activity; also recorded: no inhibition of BSH activity in feces
[1]; either 20 μM or 100 μM
  deconjugation in resuspended mouse feces (in words): did not noticeably reduce deconjugation
B. theta; 100 μM bile acid pool
  % deconjugation of TDCA: 2.06% and 0.90% and 0.81%
  % deconjugation of TUDCA: 2.31% and 5.36% and 2.32%
  % deconjugation of TβMCA: 0.64% and 0.28% and 0.16%
B. theta; 100 μM taurine conjugated bile acid pool
  % deconjugation of TCA: 0.42% and 0.72% and 0.52%
B. adolescentis
  % deconjugation of TCA: 100.00%
  % deconjugation of TDCA: 99.85% and 100.00% and 99.71%
  % deconjugation of TUDCA: 99.43% (2×) and 100.00%
  % deconjugation of TβMCA: 100.00%
B. longum BSH
  inhibition of B. longum BSH (in words): ineffective
[2]
  deconjugation / BSH inhibition in cultures of the six bacterial strains (in words): no inhibition of deconjugation was observed over the course of 21 hours in five out of the six bacterial strains; also recorded: neither riboflavin nor CAPE displayed significant inhibitory activity against any of the Gram negative strains; also recorded: No BSH inhibition in five out of the six bacterial strains
B. theta BSH
  inhibition of B. theta BSH (in words): only moderate inhibition
B. fragilis
  % deconjugation of TCA: 88.33% and 85.35% and 84.93%
  % deconjugation of TDCA: 98.95% and 98.93% and 99.13%
  % deconjugation of TUDCA: 98.66% and 98.65% and 99.13%
  % deconjugation of TβMCA: 98.64% and 98.42% and 99.12%
B. theta BSH KO strain
  bactericidal effect on BSH-deleted B. theta (CFUs after 24 h): significantly affect the growth
C. perfingens
  % deconjugation of TCA: 100.00%
  % deconjugation of TDCA: 99.71% and 99.30% and 99.38%
  % deconjugation of TUDCA: 98.92% and 98.62% and 98.71%
  % deconjugation of TβMCA: 100.00%
[3]
  effect on bacterial cell viability (CFU/mL, plated at 21 h): decreased the cell viability of the Gram negative strains tested; also recorded: inhibited the cell viability of all three Gram negative bacterial strains tested
  effect on bacterial growth (OD600 at 24 hours): inhibited the growth of the Gram positive strains tested; also recorded: inhibited the growth of all three Gram negative bacterial strains tested; also recorded: significantly inhibits the growth of the strains of Gram negative gut bacteria tested

B1: B. longum BSH (Bifidobacterium longum) (protein)
chain: T1 sequence (Q9KK62 1-317)
[4]; [8]
  Km: 2.28 mM
[4]; [9]
  Km: 2.3 ± 0.3 mM
[5]; [8]
  Km: 4.14 mM
[5]; [9]
  Km: 4.1 ± 2.5 mM
[6]
  Km: 8.3 ± 2.5 mM
  kcat: 0.115 s⁻¹
  kcat/Km: 13.3 M⁻¹ s⁻¹
